Measured values taken from patent publication US5455274A, “Hydroxyamidine derivatives” (Ciba-Geigy Corporation, priority 1992, dated 1995).

Experiments:
Human PMNs = assay: LTB4-induced PMN aggregation; format: cell-based; conditions: in vitro, 20 nM LTB4, read-out: inhibits LTB4 -induced PMN aggregation, IC50
Procedure: Neutrophils (PMN's) are prepared from uncoagulated human venous blood. Blood is dispersed into 50 ml polypropylene tubes containing 15 ml of HESPAN (Dupont, Wilmington, Del.), and mixed. Tubes are allowed to stand at room temperature for 40 minutes until most of the red blood cells sediment. The supernatants are removed and centrifuged for 5-10 min at 400×g. The remaining pellets are diluted in 70 ml of Phosphate Buffered Saline without calcium and magnesium (PBS without metals; GIBCO, Grand Island, N.Y.) and 35 ml of this suspension are placed in each of two polypropylene tubes containing 15 ml of Ficoll-Paque (Sigma, St. Louis, Mo.). Gradients are then centrifuged for 15 minutes at 420×g. […]
Human PMNs are prepared as previously described. Neutrophil aggregation is assessed by monitoring the intensity of light passing through a suspension of cells (Craddock et al., J. Clin. Invest. 60: 260-264, 1977) using a Payton dual channel aggregometer (model 300BD). […] 5 μl of 2 μM LTB4 in PBS (20 nM final concentration) are added and the aggregation response monitored for 3-5 min, the time required for optimal response, Compounds are solubilized in 0.01M DMSO and then diluted in PBS to 0.001 M. 5 μl of compound solution is added along with cytochalasin B and cells as described above. Following the preincubation period 5 μl of 2 μM LTB4 are added and aggregation is measured. […]

[1] = tested on: LTB4 -induced neutropenia; assay: LTB4-induced neutropenia in the rat; format: in vivo; conditions: dose of about 0.5 mg./Kg p.o., determined at four hours after administration
Procedure: LTB4 -Induced Neutropenia in the Rat
Male Sprague Dawley rats (crl: CDBR; Charles River, Wilmington, Mass.) (250-300 grams) are fasted overnight prior to the experiment. At least six animals are used per treatment group. Rats are given vehicle or compound either intravenously or orally and at intervals after dosing, neutrophil counts are determined from blood samples obtained just prior to and 20 seconds after intravenous infusion of 200 ng LTB4. In studies where compound is administered orally, drug is given by gavage. When drug is administered intravenously, rats are first anesthetized with 50 mg/kg i.p. of Sodium Pentabarbital. The jugular vein is exposed and cleaned of the surrounding tissue. At 3, 4 or 18 hours following administration of compound or vehicle by either route, blood samples are taken (0.3 ml of blood in 1.5 ml polypropylene microcentrifuge tube containing 0.01 mi 7.5% EDTA). Blood neutrophil counts are determined using a Technicon H-1 hematology instrument. Antagonism of the LTB4 -induced neutropenia response for the compounds tested is calculated.

CC(C)N(C(=O)c1ccc(OCCCCCOc2ccc(C(N)=NO)cc2)cc1O)C(C)C [Example 1, 4-[5-[4-[amino(hydroxyimino)methyl]phenoxy]pentyloxy]-2-hydroxy-N,N-bis(1-methylethyl)benzamide]
IC50 (Human PMNs): ~10 nM | inhibition of LTB4 -induced neutropenia in the rat [1]: causes inhibition
